# Reference: patent publication US12077503B2, “Substituted cyclic amides and their use as herbicides” (FMC CORPORATION, priority 2015, dated 2024)
# Legend:
# Assay type in all cases: in vivo
# [1] = tested on: barnyardgrass (Echinochloa crus-galli); experiment: Test G Pre-Emergence Protocol; details: Echinochloa crus-galli, pre-emergence, 312 h, evaluated after 13 days; for pest or weed control at 15.625 g/ha: 15.625 g ai/ha; for pest or weed control at 15.625 g/ha / pest or weed control at 250 g/ha: read-out: Barnyardgrass damage rating (100=total damage to plant; 0=no damage to plant); for pest or weed control at 62.5 g/ha: 62.5 g ai/ha, 100=total damage to plant, 0=no damage to plant, read-out: Barnyardgrass damage rating; for pest or weed control at 250 g/ha: 250 g ai/ha
# How it was run: (§1)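 Seeds were sown in standard soil and kept one day in a glasshouse (24/16° C day/night, 14 h light, 65% humidity), then sprayed with compound in acetone/water (50:50) containing 0.5% Tween 20 at 15.625, 62.5 or 250 g/ha. Damage was scored after 13 days (0 = none, 100 = total).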
# [2] = tested on: corn (Zea mays); experiment: Test G Pre-Emergence Protocol; details: Zea mays, pre-emergence, 312 h, evaluated after 13 days; for plant injury at 15.625 g/ha: 15.625 g ai/ha; for plant injury at 15.625 g/ha / plant injury at 250 g/ha: read-out: Corn damage rating (100=total damage to plant; 0=no damage to plant); for plant injury at 62.5 g/ha: 62.5 g ai/ha, 100=total damage to plant, 0=no damage to plant, read-out: Corn damage rating; for plant injury at 250 g/ha: 250 g ai/ha
# How it was run: as §1
# [3] = tested on: giant foxtail (Setaria faberi); experiment: Test G Pre-Emergence Protocol; details: Setaria faberi, pre-emergence, 312 h, evaluated after 13 days; for pest or weed control at 15.625 g/ha: 15.625 g ai/ha; for pest or weed control at 15.625 g/ha / pest or weed control at 250 g/ha: read-out: Foxtail, Giant damage rating (100=total damage to plant; 0=no damage to plant); for pest or weed control at 62.5 g/ha: 62.5 g ai/ha, 100=total damage to plant, 0=no damage to plant, read-out: Foxtail, Giant damage rating; for pest or weed control at 250 g/ha: 250 g ai/ha
# How it was run: as §1
# [4] = tested on: ivy-leaved morning glory (Ipomoea hederacea); experiment: Test G Pre-Emergence Protocol; details: Ipomoea, pre-emergence, 312 h, evaluated after 13 days; for pest or weed control at 15.625 g/ha: 15.625 g ai/ha; for pest or weed control at 15.625 g/ha / pest or weed control at 250 g/ha: read-out: Morningglory, Ivy-leaved damage rating (100=total damage to plant; 0=no damage to plant); for pest or weed control at 62.5 g/ha: 62.5 g ai/ha, 100=total damage to plant, 0=no damage to plant, read-out: Morningglory, Ivy-leaved damage rating; for pest or weed control at 250 g/ha: 250 g ai/ha
# How it was run: as §1
# [5] = tested on: redroot pigweed (Amaranthus retroflexus); experiment: Test G Pre-Emergence Protocol; details: Amaranthus retroflexus, pre-emergence, 312 h, evaluated after 13 days; for pest or weed control at 15.625 g/ha: 15.625 g ai/ha; for pest or weed control at 15.625 g/ha / pest or weed control at 250 g/ha: read-out: Pigweed, Redroot damage rating (100=total damage to plant; 0=no damage to plant); for pest or weed control at 62.5 g/ha: 62.5 g ai/ha, 100=total damage to plant, 0=no damage to plant, read-out: Pigweed, Redroot damage rating; for pest or weed control at 250 g/ha: 250 g ai/ha
# How it was run: as §1
# [6] = tested on: velvetleaf (Abutilon theophrasti); experiment: Test G Pre-Emergence Protocol; details: Abutilon theophrasti, pre-emergence, 312 h, evaluated after 13 days; for pest or weed control at 15.625 g/ha: 15.625 g ai/ha; for pest or weed control at 15.625 g/ha / pest or weed control at 250 g/ha: read-out: Velvetleaf damage rating (100=total damage to plant; 0=no damage to plant); for pest or weed control at 62.5 g/ha: 62.5 g ai/ha, 100=total damage to plant, 0=no damage to plant, read-out: Velvetleaf damage rating; for pest or weed control at 250 g/ha: 250 g ai/ha
# How it was run: as §1
# [7] = tested on: barnyardgrass (Echinochloa crus-galli); experiment: Test G Post-Emergence Protocol; details: Echinochloa crus-galli, post-emergence, 312 h, read-out: Barnyardgrass damage rating; for pest or weed control at 15.625 g/ha: 15.625 g ai/ha, evaluated after 13 days (100=total damage to plant; 0=no damage to plant); for pest or weed control at 62.5 g/ha: 62.5 g ai/ha; for pest or weed control at 62.5 g/ha / pest or weed control at 250 g/ha: evaluated after 13 days, 100=total damage to plant, 0=no damage to plant; for pest or weed control at 250 g/ha: 250 g ai/ha
# How it was run: (§2)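 Damage was rated 13 days after treatment from 0 (none) to 100 (plant killed). Compound was applied as a spray at 15.625, 62.5 or 250 g/ha in 50:50 acetone/water containing 0.5% Tween 20, onto 8-day-old potted plants kept in a glasshouse (24/16 °C, 14 h light, 65% humidity).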
# [8] = tested on: corn (Zea mays); experiment: Test G Post-Emergence Protocol; details: Zea mays, post-emergence, 312 h, read-out: Corn damage rating; for plant injury at 15.625 g/ha: 15.625 g ai/ha, evaluated after 13 days (100=total damage to plant; 0=no damage to plant); for plant injury at 62.5 g/ha: 62.5 g ai/ha; for plant injury at 62.5 g/ha / plant injury at 250 g/ha: evaluated after 13 days, 100=total damage to plant, 0=no damage to plant; for plant injury at 250 g/ha: 250 g ai/ha
# How it was run: as §2
# [9] = tested on: giant foxtail (Setaria faberi); experiment: Test G Post-Emergence Protocol; details: Setaria faberi, post-emergence, 312 h, read-out: Foxtail, Giant damage rating; for pest or weed control at 15.625 g/ha: 15.625 g ai/ha, evaluated after 13 days (100=total damage to plant; 0=no damage to plant); for pest or weed control at 62.5 g/ha: 62.5 g ai/ha
# How it was run: as §2
# [10] = tested on: ivy-leaved morning glory (Ipomoea hederacea); experiment: Test G Post-Emergence Protocol; details: Ipomoea, post-emergence, 312 h, read-out: Morningglory, Ivy-leaved damage rating; for pest or weed control at 15.625 g/ha: 15.625 g ai/ha, evaluated after 13 days (100=total damage to plant; 0=no damage to plant); for pest or weed control at 62.5 g/ha: 62.5 g ai/ha; for pest or weed control at 62.5 g/ha / pest or weed control at 250 g/ha: evaluated after 13 days, 100=total damage to plant, 0=no damage to plant; for pest or weed control at 250 g/ha: 250 g ai/ha
# How it was run: as §2
# [11] = tested on: redroot pigweed (Amaranthus retroflexus); experiment: Test G Post-Emergence Protocol; details: Amaranthus retroflexus, post-emergence, 312 h, read-out: Pigweed, Redroot damage rating; for pest or weed control at 15.625 g/ha: 15.625 g ai/ha, evaluated after 13 days (100=total damage to plant; 0=no damage to plant); for pest or weed control at 62.5 g/ha: 62.5 g ai/ha; for pest or weed control at 62.5 g/ha / pest or weed control at 250 g/ha: evaluated after 13 days, 100=total damage to plant, 0=no damage to plant; for pest or weed control at 250 g/ha: 250 g ai/ha
# How it was run: as §2
# [12] = tested on: velvetleaf (Abutilon theophrasti); experiment: Test G Post-Emergence Protocol; details: Abutilon theophrasti, post-emergence, 312 h, read-out: Velvetleaf damage rating; for pest or weed control at 15.625 g/ha: 15.625 g ai/ha, evaluated after 13 days (100=total damage to plant; 0=no damage to plant); for pest or weed control at 62.5 g/ha: 62.5 g ai/ha; for pest or weed control at 62.5 g/ha / pest or weed control at 250 g/ha: evaluated after 13 days, 100=total damage to plant, 0=no damage to plant; for pest or weed control at 250 g/ha: 250 g ai/ha
# How it was run: as §2
# [13] = evaluated after 13 days, 100=total damage to plant, 0=no damage to plant
Structure (SMILES),pest or weed control at 15.625 g/ha [1],pest or weed control at 62.5 g/ha [1],pest or weed control at 250 g/ha [1],plant injury at 15.625 g/ha [2],plant injury at 62.5 g/ha [2],plant injury at 250 g/ha [2],pest or weed control at 15.625 g/ha [3],pest or weed control at 62.5 g/ha [3],pest or weed control at 250 g/ha [3],pest or weed control at 15.625 g/ha [4],pest or weed control at 62.5 g/ha [4],pest or weed control at 250 g/ha [4],pest or weed control at 15.625 g/ha [5],pest or weed control at 62.5 g/ha [5],pest or weed control at 250 g/ha [5],pest or weed control at 15.625 g/ha [6],pest or weed control at 62.5 g/ha [6],pest or weed control at 250 g/ha [6],pest or weed control at 15.625 g/ha [7],pest or weed control at 62.5 g/ha [7],also measured
Cc1cc(C#N)cc(C2CN(C)C(=O)C2C(=O)Nc2cccc(F)c2F)c1 (centres unmarked) [Compound 1691],20%,70%,80%,0%,20%,80%,60%,90%,90%,0%,20%,50%,0%,20%,30%,0%,40%,60%,30%,70%,"pest or weed control at 250 g/ha [7]: 70%; plant injury at 15.625 g/ha [8]: 0%; plant injury at 62.5 g/ha [8]: 0%; plant injury at 250 g/ha [8]: 70%; pest or weed control at 15.625 g/ha [9]: 60%; pest or weed control at 62.5 g/ha [9, 13]: 80%; pest or weed control at 15.625 g/ha [10]: 0%; pest or weed control at 62.5 g/ha [10]: 60%; pest or weed control at 250 g/ha [10]: 30%; pest or weed control at 15.625 g/ha [11]: 0%; pest or weed control at 62.5 g/ha [11]: 0%; pest or weed control at 250 g/ha [11]: 0%; pest or weed control at 15.625 g/ha [12]: 0%; pest or weed control at 62.5 g/ha [12]: 10%; pest or weed control at 250 g/ha [12]: 20%"
CN1CC(c2cc(C#N)cc(OC(F)(F)F)c2)C(C(=O)Nc2cccc(F)c2F)C1=O (centres unmarked) [Compound 1694],0%,0%,0%,0%,0%,0%,0%,0%,0%,0%,0%,0%,0%,0%,0%,0%,0%,0%,0%,0%,"pest or weed control at 250 g/ha [7]: 0%; plant injury at 15.625 g/ha [8]: 0%; plant injury at 62.5 g/ha [8]: 0%; plant injury at 250 g/ha [8]: 0%; pest or weed control at 15.625 g/ha [9]: 0%; pest or weed control at 62.5 g/ha [9, 13]: 0%; pest or weed control at 250 g/ha ([9]; 250 g ai/ha, evaluated after 13 days, 100=total damage to plant, 0=no damage to plant): 0%; pest or weed control at 15.625 g/ha [10]: 0%; pest or weed control at 62.5 g/ha [10]: 0%; pest or weed control at 250 g/ha [10]: 0%; pest or weed control at 15.625 g/ha [11]: 0%; pest or weed control at 62.5 g/ha [11]: 0%; pest or weed control at 250 g/ha [11]: 0%; pest or weed control at 15.625 g/ha [12]: 0%; pest or weed control at 62.5 g/ha [12]: 0%; pest or weed control at 250 g/ha [12]: 0%"
